In patent US20210023223A1, “HYDROCARBON / LIPID - CAROTENOID COMPLEXES” (IP SCIENCE LIMITED, priority 2018, published 2021):

Experiments:
[1] = Size of pork fat globules, microscopy; format: physicochemical
Method: (§1) For measurement of lipid droplets and fat globules and quantification of their size binocular microscope Olympus BX41 was used with Cell^B software for morphometric analysis. All parameters were collected from 10 randomly selected microscopic fields at ×1000).
When carotenoids were added to animal fat, with a relatively high percentage of saturated fatty acid, a similar trend in increased fat globules was observed, although to a lesser degree. The maximum doses of lycopene or astaxanthin caused a similar increase in the pork fat globules diameter, only 50%, FIG. 2 and table 3.

Melting time at 37° C. [2] = format: physicochemical; conditions: 1 mg per 1 g of the chocolate; control 19 minutes
Method: (§2) Approximately 20 mg of butter, or pork fat, or beef fat, or cocoa butter, or chocolate, with or without certain concentrations of carotenoids, were placed on the surface of the laboratory slides and incubated at 37° C. in a laboratory incubator (TLK39).
Results presented in FIG. 15 show three different carotenoids—lycopene, lutein and astaxanthin, can reduce, albeit to a different degree, the melting time of dark chocolate regardless of its tempering protocols: Protocol I—28° C., Protocol II—29° C., Protocol III—30° C.

[3] = tested on: healthy volunteers, facial skin; experiment: Astaxanthin trial, residual skin surface components (RSSC); format: in vivo, human; conditions: 4 mg daily, 4 weeks
Method: Group I—31 (17 male and 14 female subjects, 40-80 years of age) for astaxanthin intervention;
Group I—participants received 4 mg daily doses of formulated astaxanthin,
Daily dose of each carotenoid product was taken in one capsule with the main evening meal for 4 weeks (from day 1 to day 28 of the study).
For RSSC sample collection all participants of the study were requested to avoid facial hygienic manipulations for 24 hours before material collection, which was carried out in the morning. These samples were collected only before initiation of astaxanthin supplementation (day 0) and at the end of the study (day 29). RSSC sample collection and preparation was performed according to previously described procedures. Briefly, RSSC samples were collected using polyester swabs from the surface of the facial skin (the sides of the nose). During the procedure two samples were taken (one swab per side). Each collected sample was placed on the surface of a microscope slide. A second microscope slide was pressed against the surface of the first one. […] All slides with collected samples (i.e. four slides per study participant per time point) were coded to provide sample anonymity for blinded analysis. All collected samples were sent to the laboratory of Lycotec Ltd for further processing and eventual microscopic examination.
For morphological analysis of RSSC samples one slide of the first pair was stained with hematoxylin and eosin in order to identify any cells or cell remnants. The second slide was stained using Oil Red O (Lipid Stain, ab150678, Abcam, Cambridge, UK) for lipid visualization and lipid droplet size evaluation. One slide from the other pair was stained with crystal violet solution (Gram staining) to assess the level of microorganism presence. The remaining slides were kept unstained for possible future use.
All stained smears were examined microscopically by a highly experienced cytopathologist. Microscopy was performed using Olympus BX41 laboratory microscope (Olympus, Japan) at ×1000 magnification.
The analysis included examining 40 fields of view within one smear. Dark field microscopy was applied for lipid crystal visualization. […]
The analysis of typical structural elements of the RSSC comprised lipid droplet measurements, counting characteristic lipid crystals and desquamated corneocytes, and evaluation of bacterial presence as previously described. The indicated micro objects/structures were quantified using Cell^B imaging software (Digital Imaging Solutions, Olympus, Japan). […]
In the morphological analysis of the RSSC quantitatively assessed parameters comprised lipid droplet size, numbers of desquamated corneocytes and lipid crystals and bacterial presence estimates (using Bacterial Presence Assessment Scale as described in our previous paper).

[4] = Heating olive oil-in-water emulsions; format: physicochemical
[5] = Defrosting time of frozen oil; format: physicochemical
Method: To determined defrosting time, frozen oil aliquots of 200 μI were incubated at ambient temperature of 20±2 C° until they were completely melted. Period of time, which was required for the tested sample to be melted, was measured with a laboratory timer (QUANTUM).

[6] = Oil volume needed to cover water surface; format: physicochemical; conditions: 100 ml water sample; unmodified oil 21.5 ml
Text: The other way to assess changes in oil viscosity, caused by carotenoids, would be to measure how much oil would be needed to cover a water surface of the same size. The lower viscosity of the oil the more spreadable it will be, and consequently less of it would be needed to cover this surface. Therefore, by measuring how much oil would be required to cover a certain surface of water we can asses how deep changes in the lipid folding were made by incorporating carotenoids.
An additional nine heating experiments were carried out when either pure Napolina olive oil, Napolina olive oil containing Astaxanthin (7 mg/ml), or Napolina olive oil containing Lycopene (7 mg/ml) was carefully poured over the surface of the water in order to prevent evaporation. The amount of oil required to completely cover the surface of the 100 ml water sample in the cup (diameter—7.4 cm) was measured (15 ml Falcon laboratory tubes and 1 ml Pipetman pitettes were used) and recorded for each oil type. The thickness of the resulting oil film (necessary to completely cover water surface) was then calculated. Temperature change curves were compared for uncovered water and water samples overlayed with three varieties of oil at heating temperatures of 200° C., 250° C. and 300° C. Water samples overlaid with oils were heated until water reached boiling point (usually at 99° C.). […]

[7] = Size of lipid droplets of dairy butter, microscopy; format: physicochemical
Text: as §1
Incorporation of lycopene into the butter led to a significant increase in the size of its lipid droplets and many reached more than 100 or even 300 fold of their diameter. This effect was dose-dependent, and can already be observed for less than 1 molecule of lycopene to 224,000 molecules of butter triglycerides.

Melting time at 37° C. [8] = format: physicochemical; conditions: 0.3 mg per 1 g of butter
Method: as §2

[9] = Spreadability of fat drops on hard surface (viscosity); format: physicochemical
Method: The described above enlargement of lipid droplets or fat globules, caused by carotenoids, translated into reduction of the viscosity of their product. This could be visually observed without any instrumentation—the larger surface area is covered by spreading a drop of oil or molten fat to lower the viscosity of this food mass.
When astaxanthin was added to the dairy butter reduction its viscosity could be visually observed After measuring and comparing the size of the spread drops this decrease was estimated to be about 3, (FIG. 5).

[10] = Size of beef fat globules, microscopy; format: physicochemical
Text: as §1, with “×1000). In case of beef fat, lycopene incorporation led to a smaller increase of its fat globules, only by 30%, FIG. 3.” for “×1000).”

With `CC1=C(/C=C/C(C)=C/C=C/C(C)=C/C=C/C=C(C)/C=C/C=C(C)/C=C/C2=C(C)C(=O)[C@@H](O)CC2(C)C)C(C)(C)C[C@H](O)C1=O` [Astaxanthin, astaxanthin] the “Size of pork fat globules, Mean” value ([1]; astaxanthin dose 0.1 per 30 g of pork fat) was 5.687 μm, the “Size of pork fat globules, Mean” value ([1]; astaxanthin dose 0.5 per 30 g of pork fat) was 4.937 μm and the “Size of pork fat globules, Mean” value ([1]; astaxanthin dose 1.0 per 30 g of pork fat) was 5.333 μm. For the same molecule, the “Size of pork fat globules, Mean” value ([1]; astaxanthin dose 2.0 per 30 g of pork fat) was 6.812 μm, the “Size of pork fat globules, Mean” value ([1]; astaxanthin dose 3.5 per 30 g of pork fat) was 8.307 μm and the “Size of pork fat globules, Mean” value ([1]; astaxanthin dose 7.0 per 30 g of pork fat) was 7.9 μm. The “Size of pork fat globules, Mean” value ([1]; astaxanthin dose 10.0 per 30 g of pork fat) was 8.692 μm, the “Increase in the pork fat globules diameter” value ([1]; maximum doses) was 50% and the “Melting time of dark chocolate” value (Melting time at 37° C. [2]) was 5 min. For the same molecule, the “Corneocyte desquamation levels at the end of the study” value ([3]; P=0.0075) was “clearly reduced in most volunteers”, the “Lipid droplet size, day 29 vs day 0” value ([3]; subgroup of obese subjects) was “statistically significant (P=0.0214) increase” and the “Lipid droplet size, day 29 vs day 0” value ([3]; whole group, P=0.0683) was “has not reached statistical significance”. The “Microbial presence in RSSC samples” value ([3]; whole volunteer group) was “statistically significant (P=0.0367) decrease”, the “Rate of heating of olive oil emulsion in water in the first 3 minutes” value ([4]; 50%:50%, 1 molecule lycopene to 67,000 or astaxanthin to 71,000 fatty acids, control 10° C.) was 23 °C and the “Maximum temperature the emulsion could reach” value ([4]; water to olive oil 75%:25%, control 62° C.) was 90 °C. For the same molecule, the “Reduction of thawing time of Olive oil” value ([5]; 0.3 mg per 1 ml of the oil) was 11 fold, the “Thawing time of frozen Olive oil” value ([5]; 0.3 mg per 1 ml of the oil, controls 60 (lycopene) and 48 seconds (astaxanthin)) was 4.3 s and the “Reduction of thawing time of Sunflower oil” value ([5]; 0.3 mg per 1 ml the oil) was “above 3 fold”. The “Oil volume needed to cover the surface of the water” value [6] was 15 mL, the Size of butter lipid droplets, Mean ([7]; astaxanthin dose 0.1 per 30 g of butter) was 7.44 µm and the Size of butter lipid droplets, Mean ([7]; astaxanthin dose 0.5 per 30 g of butter) was 9.23 µm. For the same molecule, the Size of butter lipid droplets, Mean ([7]; astaxanthin dose 1.0 per 30 g of butter) was 12.4 µm, the Size of butter lipid droplets, Mean ([7]; astaxanthin dose 2.0 per 30 g of butter) was 14.7 µm and the Size of butter lipid droplets, Mean ([7]; astaxanthin dose 3.5 per 30 g of butter) was 12.2 µm. For the same molecule, the Size of butter lipid droplets, Mean ([7]; astaxanthin dose 7.0 per 30 g of butter) was 25 µm, the Size of butter lipid droplets, Mean ([7]; astaxanthin dose 10.0 per 30 g of butter) was 34.1 µm and the “Reduction of melting time of dairy butter” value (Melting time at 37° C. [8]) was “more than 3.5 fold”. For the same molecule, the “Melting time of dairy butter” value (Melting time at 37° C. [8]; control 140 seconds) was 38 s, the “Decrease of dairy butter viscosity from size of the spread drops” value [9] was “about 3” and the “Increase of beef fat globules diameter” value [10] was 2.5 folds.
